# Experimental data reported in ChEMBL document CHEMBL1201862, “PubChem BioAssay data set” (2004).
# Active and inactive are the calls of the source.
# What was measured:
# Large T antigen = Large T antigen (Simian virus 40, UniProt P03070); type: functional, Betapolyomavirus macacae;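 further: Confirmatory-stage PubChem screen for compounds that inhibit SV40 T antigen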
# NS3 = NS3 (Hepatitis C virus, UniProt A3EZJ3); assay: PubChem AID 2173; design: species or system Hepacivirus hominis
# [1] = biological target: T1, Long-chain-fatty-acid--AMP ligase FadD28 (Mycobacterium tuberculosis, UniProt P9WQ59); assay: Fluorescence polarization aasay to screen for inhibitors that compete for the binding of FadD28 to a bisubstrate Measured in Biochemical System Using Plate Reader - 2147-01_Inhibitor_Dose_CherryPick_Activity.; type: functional, Mycobacterium tuberculosis H37Rv
# T1 sequence (P9WQ59 whole entry): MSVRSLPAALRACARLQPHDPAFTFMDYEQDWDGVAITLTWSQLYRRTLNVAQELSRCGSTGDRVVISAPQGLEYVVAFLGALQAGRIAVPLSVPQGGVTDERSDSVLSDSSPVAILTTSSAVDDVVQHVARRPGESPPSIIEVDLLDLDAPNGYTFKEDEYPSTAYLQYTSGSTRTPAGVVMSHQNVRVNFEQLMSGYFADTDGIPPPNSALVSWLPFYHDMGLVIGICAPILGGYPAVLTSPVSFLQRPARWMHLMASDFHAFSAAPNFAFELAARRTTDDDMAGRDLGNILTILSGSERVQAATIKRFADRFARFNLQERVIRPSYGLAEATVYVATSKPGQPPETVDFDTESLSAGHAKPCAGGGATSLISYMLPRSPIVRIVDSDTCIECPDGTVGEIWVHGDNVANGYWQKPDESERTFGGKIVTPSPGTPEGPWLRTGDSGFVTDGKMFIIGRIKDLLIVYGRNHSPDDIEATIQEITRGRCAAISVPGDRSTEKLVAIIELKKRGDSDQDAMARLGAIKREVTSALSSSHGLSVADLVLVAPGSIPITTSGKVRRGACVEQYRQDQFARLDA
# [2] = viability of uninfected HEp-2 cells – cell-based, HTS, cytotoxicity control for RSV inhibitor project, dose response (AID 2410); type: functional; settings: human respiratory syncytial virus
# cells [3] = assay: cells
# [4] = luciferase reporter signal suppression in cells – H4 neuroglioma cells, luminescence, dose response (AID 1990); type: functional, cell-based
# [5] = luciferase reporter signal reduction – luminescence, H4-C neuroglioblastoma cells, dose response (AID 2458); type: functional, cell-based;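 further: H4 neuroglioblastoma cells stably carrying a luciferase reporter gene fusion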
# BJ [6] = assay: BJ-TERT fibroblast viability loss – cell-based, RAS-independent, luminescence, dose response (AID 1933); type: functional; settings: Homo sapiens
# cells [7] = type: functional, cell-based
# [8] = alpha-synuclein stem-loop luciferase translation blockers – H4 neuroglioma cells, luminescence, confirmation (AID 1988); type: functional, cell-based
# BJ [9] = assay: cells; type: functional, cell-based; settings: Homo sapiens
# BJ [10] = assay: BJ-TERT-LT-ST fibroblast viability loss – cell-based, RAS-independent, luminescence, dose response (AID 1935); type: functional; settings: Homo sapiens;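 further: BJ fibroblasts immortalized with TERT plus LT and ST oncogenes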
# [11] = DRD fibroblast viability loss – cell-based, non-viral oncogenic, luminescence, dose response (AID 1934); type: functional; settings: Homo sapiens
# [12] = alpha-synuclein stem-loop translation blockers – luminescence, H4 neuroglioblastoma cells, dose confirmation, confirmation (AID 2454); type: functional, cell-based;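 further: H4 neuroglioblastoma cells carrying an alpha-synuclein 5'UTR luciferase reporter; potency for inhibition of the luciferase signal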
# [13] = HEK-293T viability loss after treatment – luminescence, T-cell screen hits, cytotoxicity control for TCR NF-kB inhibitor project, dose response (AID 489026); type: functional, cell-based;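 further: cells exposed to compound about 14 hours before the viability readout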
# cells [14] = type: functional, cell-based; remark: listed apart in the source
# [15] = biological target: T2, Nuclear receptor subfamily 0 group B member 1 (Homo sapiens, UniProt P51843); type: functional, cell-based;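 further: HEK293T cells transfected with SF-1 and DAX-1 plus StAR promoter luciferase reporter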
# T2 sequence (P51843 whole entry): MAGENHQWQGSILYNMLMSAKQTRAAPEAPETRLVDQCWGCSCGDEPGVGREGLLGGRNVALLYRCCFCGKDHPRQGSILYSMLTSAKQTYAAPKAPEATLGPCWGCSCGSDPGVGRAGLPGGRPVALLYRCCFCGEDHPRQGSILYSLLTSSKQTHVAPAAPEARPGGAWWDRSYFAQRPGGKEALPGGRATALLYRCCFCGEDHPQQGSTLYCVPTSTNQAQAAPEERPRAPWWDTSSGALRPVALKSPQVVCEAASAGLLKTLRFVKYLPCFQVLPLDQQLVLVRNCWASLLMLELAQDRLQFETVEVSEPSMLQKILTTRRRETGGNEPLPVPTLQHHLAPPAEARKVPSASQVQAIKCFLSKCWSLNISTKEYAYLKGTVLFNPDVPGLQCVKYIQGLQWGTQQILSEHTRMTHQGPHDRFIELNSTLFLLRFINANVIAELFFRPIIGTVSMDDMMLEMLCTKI
# Paired box protein Pax-8 = Paired box protein Pax-8 (Homo sapiens, UniProt Q06710); assay: PAX8 transcriptional activity inhibition in RMG-I – RMG-I cells, luciferase, cherry-pick, dose response (AID 687027); type: functional, cell-based;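 further: luciferase reporter driven by Pax8 target thyroperoxidase promoter measured by SteadyGlo luminescence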
# [16] = biological target: T3, Short transient receptor potential channel 4 (Mus musculus, UniProt Q9QUQ5); assay: block of DAMGO-driven TRPC4 calcium entry – cell-based, HEK293 TRPC4/mu-opioid, Fluo-4 calcium, dose response (AID 434942); type: functional;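 further: potency of inhibitors blocking the TRPC4 calcium response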
# T3 sequence (Q9QUQ5 whole entry): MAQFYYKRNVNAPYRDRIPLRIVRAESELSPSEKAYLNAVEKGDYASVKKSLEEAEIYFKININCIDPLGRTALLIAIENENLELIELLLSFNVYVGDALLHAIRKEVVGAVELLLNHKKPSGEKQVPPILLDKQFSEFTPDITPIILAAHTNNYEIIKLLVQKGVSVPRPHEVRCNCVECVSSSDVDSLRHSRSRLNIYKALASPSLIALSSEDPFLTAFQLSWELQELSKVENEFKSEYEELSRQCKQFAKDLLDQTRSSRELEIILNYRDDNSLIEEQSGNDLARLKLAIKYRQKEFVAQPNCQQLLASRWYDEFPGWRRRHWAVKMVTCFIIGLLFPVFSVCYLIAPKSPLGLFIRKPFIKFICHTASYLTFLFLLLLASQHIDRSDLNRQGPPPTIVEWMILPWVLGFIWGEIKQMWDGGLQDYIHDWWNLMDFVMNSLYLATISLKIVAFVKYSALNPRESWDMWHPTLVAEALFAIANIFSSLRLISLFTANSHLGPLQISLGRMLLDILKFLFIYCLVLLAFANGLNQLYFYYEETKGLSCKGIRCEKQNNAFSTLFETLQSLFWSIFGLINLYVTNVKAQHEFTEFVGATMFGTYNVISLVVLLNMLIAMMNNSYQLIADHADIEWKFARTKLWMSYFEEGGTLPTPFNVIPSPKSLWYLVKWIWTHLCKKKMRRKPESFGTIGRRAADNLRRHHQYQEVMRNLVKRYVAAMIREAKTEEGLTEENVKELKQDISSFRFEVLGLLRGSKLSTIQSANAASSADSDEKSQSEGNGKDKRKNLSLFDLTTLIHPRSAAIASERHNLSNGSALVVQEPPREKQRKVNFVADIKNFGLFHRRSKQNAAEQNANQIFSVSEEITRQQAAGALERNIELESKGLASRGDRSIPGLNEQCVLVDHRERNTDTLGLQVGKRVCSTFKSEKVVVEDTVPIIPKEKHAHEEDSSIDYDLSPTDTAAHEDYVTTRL
# Bcl-2-like protein 10 = Bcl-2-like protein 10 (Homo sapiens, UniProt Q9HD36); assay: Bcl-B/TR3 peptide binding disruption – biochemical, fluorescence polarization, FITC-TR3 peptide, selectivity assay for Bfl-1 inhibitor project, primary screen (AID 748);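 further: fluorescence polarization from a fluorescein-labelled TR3 peptide binding purified Bcl-B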
# Leucine aminopeptidase = biological target: T4, Leucine aminopeptidase (Plasmodium falciparum 3D7, UniProt Q8IL11); assay: P. falciparum M17LAP inhibitors, primary screen, biochemical, fluorogenic H-Leu-NHMec substrate, 1536-well (AID 1619); type: functional
# T4 sequence (Q8IL11 whole entry): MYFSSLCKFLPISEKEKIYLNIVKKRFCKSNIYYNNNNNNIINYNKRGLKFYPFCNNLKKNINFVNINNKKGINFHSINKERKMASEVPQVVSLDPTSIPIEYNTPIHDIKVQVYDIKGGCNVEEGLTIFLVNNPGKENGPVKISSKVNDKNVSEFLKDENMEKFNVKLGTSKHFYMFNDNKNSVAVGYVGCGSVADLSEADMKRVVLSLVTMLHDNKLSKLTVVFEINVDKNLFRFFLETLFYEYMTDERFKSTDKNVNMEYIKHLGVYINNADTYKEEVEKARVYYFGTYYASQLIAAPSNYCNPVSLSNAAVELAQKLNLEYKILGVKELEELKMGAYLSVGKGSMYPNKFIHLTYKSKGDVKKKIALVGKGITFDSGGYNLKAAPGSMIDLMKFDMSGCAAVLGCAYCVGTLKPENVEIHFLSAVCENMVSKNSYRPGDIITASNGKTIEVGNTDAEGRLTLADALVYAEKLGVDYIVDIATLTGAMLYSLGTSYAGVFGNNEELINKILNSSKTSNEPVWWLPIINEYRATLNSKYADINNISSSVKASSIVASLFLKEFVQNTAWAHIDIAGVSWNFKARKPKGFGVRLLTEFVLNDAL
# [17] = biological target: Luciferin 4-monooxygenase (Photinus pyralis, UniProt P08659); assay: Counter Screen for Luciferase-based Assay Positives. [Related pubchem assays: 620, 618, 411 ]
# [18] = biological target: T5, Microphthalmia-associated transcription factor (Homo sapiens, UniProt O75030); assay: reducers of TRPM1 reporter luminescence, concentration series – cell-based, SK-MEL-5, cherry-picked, set 3, MITF inhibitor project, dose response (AID 493073); type: functional;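 further: SK-MEL-5 melanoma cells with luciferase driven by the MITF target TRPM1 promoter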
# T5 sequence (O75030 whole entry): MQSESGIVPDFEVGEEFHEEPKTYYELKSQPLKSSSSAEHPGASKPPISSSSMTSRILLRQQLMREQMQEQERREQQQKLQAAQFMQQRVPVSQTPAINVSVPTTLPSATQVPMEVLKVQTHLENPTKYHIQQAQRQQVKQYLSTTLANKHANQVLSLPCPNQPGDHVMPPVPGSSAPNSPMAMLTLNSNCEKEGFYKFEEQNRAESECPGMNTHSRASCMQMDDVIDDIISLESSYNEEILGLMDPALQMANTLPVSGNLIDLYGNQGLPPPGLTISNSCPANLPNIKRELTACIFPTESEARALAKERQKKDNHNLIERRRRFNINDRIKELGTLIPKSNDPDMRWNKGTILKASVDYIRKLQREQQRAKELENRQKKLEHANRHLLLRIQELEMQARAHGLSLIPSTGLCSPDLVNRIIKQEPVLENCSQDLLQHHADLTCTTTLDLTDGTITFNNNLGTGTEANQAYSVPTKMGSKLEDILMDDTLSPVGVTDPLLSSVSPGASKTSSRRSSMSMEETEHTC
# HT-1080 = assay: HT1080 cell viability loss – fluorescence readout (AID 620); type: functional, cell-based; settings: Homo sapiens
# [19] = HEK-293T cell viability reduction – luminescence, B-cell screen hits, cytotoxicity control for BCR NF-kB inhibitor project, dose response (AID 489021); type: functional, cell-based;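 further: HEK-293T cells carrying an NF-kB luciferase reporter; cells exposed to compound for about 14 hours before viability readout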
# [20] = blockers of HIV-1 envelope-mediated cell-cell fusion – cherry-pick, dose response (AID 652057); type: functional, cell-based
# [21] = blockers of HIV-1 ZM109 envelope-driven cell-cell fusion – HeLa effector, CEM target cells, luciferase, cherry-pick, dose response (AID 652058); type: functional, cell-based;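 further: luciferase signal from HIV-1 Env mediated cell-cell fusion of effector and target cells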
# [22] = off-target signal loss in HeLa-CEM21 co-culture – HeLa F-luc CTL cells, cherry-picked, counter-screen for HIV-1 Env fusion inhibitor project, dose response (AID 652040); type: functional, cell-based;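 further: potency for signal decrease marking cytotoxic or nonspecific inhibition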
# [23] = HIV-1 AD8 envelope cell-cell fusion blockers – cherry-pick, dose response (AID 652062); type: functional, cell-based;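 further: luciferase signal from cell-cell fusion driven by HIV-1 clade B AD8 Env; potency is for inhibitors of fusion seen as a drop in luminescence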
# [24] = Luminescence Cell-Based Dose Response HTS to Identify Inhibitors of 5'UTR Stem-Loop Driven Prion Protein mRNA Translation in H4 Neuroglioblastoma Cells. [Related pubchem assays: 1827 (Project Summary), 1813 (Primary HTS)]; type: functional
# NS3, sequence (A3EZJ3 whole entry): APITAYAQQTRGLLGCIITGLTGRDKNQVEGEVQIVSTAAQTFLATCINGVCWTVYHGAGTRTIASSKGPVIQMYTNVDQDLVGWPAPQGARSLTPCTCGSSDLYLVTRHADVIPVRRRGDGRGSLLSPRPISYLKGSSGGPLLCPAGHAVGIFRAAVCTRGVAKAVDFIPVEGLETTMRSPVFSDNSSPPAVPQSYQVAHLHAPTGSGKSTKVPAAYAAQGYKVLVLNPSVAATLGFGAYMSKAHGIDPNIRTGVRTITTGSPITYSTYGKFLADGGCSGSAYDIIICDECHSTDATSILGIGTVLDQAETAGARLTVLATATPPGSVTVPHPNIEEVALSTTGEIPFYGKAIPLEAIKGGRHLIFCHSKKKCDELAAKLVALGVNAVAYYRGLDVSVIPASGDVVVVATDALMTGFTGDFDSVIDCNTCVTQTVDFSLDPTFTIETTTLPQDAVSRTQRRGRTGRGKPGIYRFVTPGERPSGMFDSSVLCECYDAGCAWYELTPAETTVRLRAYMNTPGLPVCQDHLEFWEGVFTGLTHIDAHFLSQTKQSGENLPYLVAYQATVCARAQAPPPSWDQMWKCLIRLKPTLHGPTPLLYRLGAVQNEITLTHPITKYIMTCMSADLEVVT
# Luciferin 4-monooxygenase, sequence (P08659 whole entry): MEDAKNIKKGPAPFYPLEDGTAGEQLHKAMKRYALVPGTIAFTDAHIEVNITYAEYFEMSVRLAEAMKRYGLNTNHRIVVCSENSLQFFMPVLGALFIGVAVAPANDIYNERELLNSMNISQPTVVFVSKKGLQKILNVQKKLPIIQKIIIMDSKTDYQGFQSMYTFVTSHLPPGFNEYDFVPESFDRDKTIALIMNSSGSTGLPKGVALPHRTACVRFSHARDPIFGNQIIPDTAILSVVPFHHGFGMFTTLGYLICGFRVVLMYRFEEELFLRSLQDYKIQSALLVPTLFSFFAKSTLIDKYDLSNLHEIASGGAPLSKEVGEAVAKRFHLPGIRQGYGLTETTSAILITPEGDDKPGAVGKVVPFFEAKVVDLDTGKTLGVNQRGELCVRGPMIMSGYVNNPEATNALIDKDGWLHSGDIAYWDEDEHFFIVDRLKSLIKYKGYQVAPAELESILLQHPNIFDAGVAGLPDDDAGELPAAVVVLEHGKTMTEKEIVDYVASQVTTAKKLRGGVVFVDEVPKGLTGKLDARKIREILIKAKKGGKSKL
# Paired box protein Pax-8, sequence (Q06710 whole entry): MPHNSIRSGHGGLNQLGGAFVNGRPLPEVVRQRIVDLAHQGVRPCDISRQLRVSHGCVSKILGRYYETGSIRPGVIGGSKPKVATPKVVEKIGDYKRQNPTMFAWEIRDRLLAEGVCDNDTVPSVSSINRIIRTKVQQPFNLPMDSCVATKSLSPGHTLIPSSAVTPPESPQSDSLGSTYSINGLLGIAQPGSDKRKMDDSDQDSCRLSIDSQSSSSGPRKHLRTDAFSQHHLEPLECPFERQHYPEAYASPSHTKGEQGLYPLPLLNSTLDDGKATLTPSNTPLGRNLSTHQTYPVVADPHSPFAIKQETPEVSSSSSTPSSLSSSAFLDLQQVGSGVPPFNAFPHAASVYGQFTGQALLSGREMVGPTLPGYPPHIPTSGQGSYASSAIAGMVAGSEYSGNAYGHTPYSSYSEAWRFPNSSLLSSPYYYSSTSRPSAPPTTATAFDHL
# Large T antigen, sequence (P03070 whole entry): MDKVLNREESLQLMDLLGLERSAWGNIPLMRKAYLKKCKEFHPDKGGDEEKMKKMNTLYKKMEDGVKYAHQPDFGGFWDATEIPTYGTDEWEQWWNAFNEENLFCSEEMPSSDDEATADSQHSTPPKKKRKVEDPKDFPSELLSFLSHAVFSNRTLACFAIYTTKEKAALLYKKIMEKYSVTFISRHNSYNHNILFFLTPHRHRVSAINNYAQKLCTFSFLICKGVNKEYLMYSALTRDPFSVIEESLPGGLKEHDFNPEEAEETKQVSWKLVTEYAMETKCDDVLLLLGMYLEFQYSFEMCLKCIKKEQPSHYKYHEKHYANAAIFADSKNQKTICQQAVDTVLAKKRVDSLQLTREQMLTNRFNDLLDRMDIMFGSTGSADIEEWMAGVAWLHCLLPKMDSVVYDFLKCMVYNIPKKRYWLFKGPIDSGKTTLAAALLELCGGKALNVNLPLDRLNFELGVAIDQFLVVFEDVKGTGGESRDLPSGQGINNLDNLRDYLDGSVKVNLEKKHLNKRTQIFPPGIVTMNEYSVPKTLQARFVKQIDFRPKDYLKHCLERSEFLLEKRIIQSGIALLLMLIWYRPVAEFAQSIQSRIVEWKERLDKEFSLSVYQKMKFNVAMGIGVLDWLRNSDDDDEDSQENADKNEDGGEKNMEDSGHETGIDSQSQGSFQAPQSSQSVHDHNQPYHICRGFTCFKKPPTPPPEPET
# Bcl-2-like protein 10, sequence (Q9HD36 whole entry): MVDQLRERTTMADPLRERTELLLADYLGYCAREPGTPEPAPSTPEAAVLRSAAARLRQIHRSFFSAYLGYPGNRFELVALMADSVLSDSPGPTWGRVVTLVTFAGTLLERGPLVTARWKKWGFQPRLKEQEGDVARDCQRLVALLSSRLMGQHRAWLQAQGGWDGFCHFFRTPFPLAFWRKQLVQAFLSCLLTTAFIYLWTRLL
compound,measurement,setting,value
O=c1c2c(O)cc(CSc3ccc(Cl)cc3)nc2[nH]n1-c1ccccc1,IC50,Large T antigen,> 100 µM (active)
same,IC50,NS3,5.22 µM (active)
same,AC50,[1],23.4 µM (active)
Cc1cc(O)nc(N/N=C/c2c(C)nn(-c3ccccc3Cl)c2Cl)n1,CC50,[2],21.2 µM (active)
same,IC50,cells [3],41.5 µM (active)
COc1ccc(NC(=O)C(=O)NCC2CCCN2S(=O)(=O)c2ccc(C)cc2)cc1 (stereo unspecified),EC50,[4],< 0.1 µM (active)
same,EC50,[5],0.051 µM (active)
same,EC50,BJ [6],0.625 µM (active)
same,EC50,cells [7],0.06 µM (active)
same,EC50,[8],< 0.1 µM (active)
same,EC50,BJ [9],11.7 µM (inconclusive)
same,EC50,BJ [10],0.611 µM (active)
same,EC50,[11],0.484 µM (active)
same,EC50,[12],0.047 µM (active)
same,IC50,[13],> 80 µM (inactive)
same,IC50,cells [14],> 67.5 µM (inactive)
same,IC50,[15],> 67.5 µM (inactive)
same,AC50,Paired box protein Pax-8,0.709 µM (active)
CCc1cccc(OCC(=O)Nc2ccc(C(=O)O)cc2NC(=O)COc2cccc(CC)c2)c1,EC50,[16],11.9 µM (active)
Cc1c[nH]c2cccc(OCC(O)CNC(C)(C)C)c12 (stereo unspecified),IC50,Bcl-2-like protein 10,> 100 µM (inactive)
N#C/C(=C\c1ccc(O)c(O)c1)S(=O)(=O)c1ccccc1,IC50,Leucine aminopeptidase,7.23 µM (active)
same,IC50,NS3,4.39 µM (active)
N#Cc1c(NC(=O)CSc2nnc[nH]2)sc2c1CCCC2,IC50,Leucine aminopeptidase,4.79 µM (active)
same,EC50,[17],27.8 µM (active)
same,AC50,[18],0.599 µM (active)
CCCN1C2=NCCN2c2cc(C)c(C)cc21,EC50,[16],5.96 µM (active)
COc1ccc(C(c2c(NC(=O)c3ccco3)sc(C)c2C)N2CCOCC2)cc1OC (stereo unspecified),CC50,[2],46.5 µM (active)
same,IC50,cells [3],4.07 µM (active)
COc1ccc(-c2noc(CCCC(=O)O)n2)cc1,EC50,[17],3.3 µM (active)
same,EC50,HT-1080,> 50 µM (not active)
same,IC50,[19],> 80 µM (inactive)
same,AC50,[20],2.26 µM (active)
same,AC50,[21],1.08 µM (active)
same,AC50,[22],1.59 µM (active)
same,AC50,[23],1.1 µM (active)
O=C(CSc1nnc(-c2ccc(Br)cc2)o1)Nc1cccc(C(=O)O)c1,EC50,[4],3.04 µM (active)
same,EC50,[5],0.31 µM (active)
same,EC50,cells [7],0.934 µM (active)
same,EC50,[24],< 0.1 µM (active)
same,EC50,[8],< 0.1 µM (active)
same,EC50,[12],0.409 µM (active)
